Among the test systems are DU-145 prostate; CCRF-CEM leukemia; HOP-92 NSCLC; IGROV1 ovarian; A549 NSCLC; MCF7 breast; TK-10 renal; OVCAR-5 ovarian; HT29 colon; SK-MEL-28 melanoma.
Holding throughout (assay): inhibition of tumour cell growth, NCI panel, 48 h

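How tested: cells in 96-well plates exposed to compound for 48 hours at five concentrations. GI50 = concentration required for 50% inhibition of growth. At the TGI there is no net growth.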

In the case of `CC(=O)N1N=C(c2ccc(Nc3nc(Nc4ccc(F)cc4)nc(Nc4ccc(Cl)cc4)n3)cc2)CC1c1ccc(N(C)C)cc1` (stereo not given), the GI50 with DU-145 prostate is 10.2 µM; in the assay with CCRF-CEM leukemia, 5.23 µM; in the assay on HOP-92 NSCLC, 2.87 µM; in the assay on IGROV1 ovarian, 2.96 µM; in the assay on A549 NSCLC it was 4.27 µM; in the assay with MCF7 breast, 3.94 µM. Also, the GI50 is 8.59 µM with TK-10 renal, 14 µM in the assay with OVCAR-5 ovarian, 3.58 µM with HT29 colon and 11.7 µM with SK-MEL-28 melanoma. For the same molecule, the TGI was 39 µM in the assay on DU-145 prostate; more than 100 µM with CCRF-CEM leukemia; 19.1 µM in the assay with HOP-92 NSCLC; 15.8 µM in the assay with IGROV1 ovarian; 43 µM with A549 NSCLC; 26.9 µM with MCF7 breast. For the same molecule, the TGI was 31 µM with TK-10 renal, 43.6 µM in the assay on OVCAR-5 ovarian, more than 75.9 µM with HT29 colon and 40.1 µM in the assay with SK-MEL-28 melanoma.
In the case of `COc1cc2oc(-c3cccc(C(=O)Nc4ccc(C)cc4)c3)cc(=O)c2c(OC)c1OC`, the GI50 is 3.21 µM with DU-145 prostate; 4.38 µM in the assay with CCRF-CEM leukemia; 1.55 µM in the assay with HOP-92 NSCLC; 2.99 µM in the assay with IGROV1 ovarian; 3.86 µM with A549 NSCLC; 2.53 µM with MCF7 breast. Besides, the GI50 is 6.89 µM with TK-10 renal, 2.17 µM in the assay with OVCAR-5 ovarian, 2.55 µM in the assay with HT29 colon and 1.67 µM with SK-MEL-28 melanoma. In addition, the TGI was more than 100 µM in the assay with DU-145 prostate; more than 100 µM in the assay on CCRF-CEM leukemia; 5.46 µM in the assay on HOP-92 NSCLC; more than 100 µM in the assay with IGROV1 ovarian; more than 100 µM in the assay on A549 NSCLC; more than 100 µM in the assay on MCF7 breast. The TGI with TK-10 renal is more than 100 µM; in the assay on OVCAR-5 ovarian, more than 100 µM; in the assay with HT29 colon it was more than 100 µM; with SK-MEL-28 melanoma, 4.11 µM.
In the case of `CC(=O)Oc1ccccc1C(=O)NCCC[Se]C#N`, the GI50 was 1.72 µM with DU-145 prostate; 2.89 µM with CCRF-CEM leukemia; 1.49 µM with HOP-92 NSCLC; 2.24 µM with IGROV1 ovarian; 1.84 µM with A549 NSCLC; 2.32 µM with MCF7 breast. For the same molecule, the GI50 in the assay with TK-10 renal was 1.83 µM; in the assay with OVCAR-5 ovarian, 2.78 µM; in the assay on HT29 colon, 3.51 µM; in the assay with SK-MEL-28 melanoma it was 1.89 µM. Besides, the TGI in the assay on DU-145 prostate amounted to 3.17 µM; with CCRF-CEM leukemia, 21.1 µM; in the assay with HOP-92 NSCLC it was 3.05 µM; with IGROV1 ovarian, 11.2 µM; in the assay with A549 NSCLC, 3.6 µM; in the assay on MCF7 breast, 11.7 µM. The TGI in the assay on TK-10 renal was 3.82 µM; with OVCAR-5 ovarian, 6.91 µM; with HT29 colon it was 11.2 µM; in the assay with SK-MEL-28 melanoma, 4.82 µM.
Turning to `O=C(O)c1cc2cc(O)ccc2[nH]1`, the GI50 in the assay on DU-145 prostate, with CCRF-CEM leukemia, in the assay on HOP-92 NSCLC, in the assay on IGROV1 ovarian, with A549 NSCLC and with MCF7 breast was more than 100 µM in each case. Also, the GI50 in the assay on TK-10 renal, in the assay with OVCAR-5 ovarian, in the assay on HT29 colon and in the assay on SK-MEL-28 melanoma was more than 100 µM throughout. The TGI in the assay on DU-145 prostate, in the assay with CCRF-CEM leukemia, in the assay with HOP-92 NSCLC, in the assay with IGROV1 ovarian, in the assay with A549 NSCLC and with MCF7 breast was more than 100 µM throughout. The TGI in the assay with TK-10 renal, with OVCAR-5 ovarian, with HT29 colon and with SK-MEL-28 melanoma was more than 100 µM in each case.
As for `N#CSCC1CC(O)(c2ccccc2)CC(c2ccc(Cl)cc2)O1` (stereo not given), the GI50 in the assay on DU-145 prostate is 2.18 µM; in the assay on CCRF-CEM leukemia it was 2.55 µM; in the assay with HOP-92 NSCLC, 2.21 µM; in the assay on IGROV1 ovarian, 2.75 µM; in the assay on A549 NSCLC, 3.74 µM; in the assay on MCF7 breast, 1.84 µM. Also, the GI50 in the assay with TK-10 renal was 2.13 µM; in the assay on OVCAR-5 ovarian, 12.8 µM; with HT29 colon it was 3.44 µM; with SK-MEL-28 melanoma it was 1.84 µM. Also, the TGI in the assay on DU-145 prostate was determined as 4.72 µM; with CCRF-CEM leukemia, 11.2 µM; in the assay with HOP-92 NSCLC, 5.58 µM; in the assay with IGROV1 ovarian it was 7.72 µM; with A549 NSCLC, 17.3 µM; in the assay with MCF7 breast, 4.92 µM. The TGI with TK-10 renal worked out at 4.33 µM; with OVCAR-5 ovarian, 26 µM; in the assay with HT29 colon, 8.74 µM; with SK-MEL-28 melanoma it was 4.57 µM.
For `C[C@@H]1CC[C@@H]2[C@@H]1[C@H](OC(=O)c1ccc3ccccc3c1)[C@]1(C3CCCCC3)C[C@@H](OC(=O)CO)[C@@]2(C)O1`, the GI50 was 12.2 µM in the assay on DU-145 prostate; 5.36 µM with CCRF-CEM leukemia; 3.15 µM in the assay with HOP-92 NSCLC; 15.6 µM with IGROV1 ovarian; 8.12 µM in the assay on A549 NSCLC; 3.44 µM with MCF7 breast. Also, the GI50 in the assay on TK-10 renal is 14.5 µM; with OVCAR-5 ovarian, 14.8 µM; in the assay on HT29 colon it was 4.38 µM; in the assay with SK-MEL-28 melanoma, 13.9 µM. In addition, the TGI with DU-145 prostate came to 25.9 µM; in the assay on CCRF-CEM leukemia, 23.6 µM; in the assay with HOP-92 NSCLC it was 15.4 µM; with IGROV1 ovarian, 32.8 µM; in the assay with A549 NSCLC, 21.7 µM; with MCF7 breast, 16.5 µM. Moreover, the TGI in the assay with TK-10 renal is 31.1 µM; in the assay on OVCAR-5 ovarian, 30 µM; in the assay on HT29 colon it was 18.3 µM; with SK-MEL-28 melanoma, 28.5 µM.
With `Nc1cc(N)cc(Cc2ccccc2)c1`, the TGI in the assay on DU-145 prostate, in the assay on CCRF-CEM leukemia, with HOP-92 NSCLC, in the assay on IGROV1 ovarian, with A549 NSCLC and with MCF7 breast was more than 100 µM in each case. Moreover, the TGI in the assay on TK-10 renal, with OVCAR-5 ovarian, in the assay on HT29 colon and in the assay with SK-MEL-28 melanoma was more than 100 µM throughout.
Regarding `O=C(Nc1nc(-c2ccccc2)cs1)c1cc(O)c(O)c(O)c1`, the GI50 with DU-145 prostate was 6.41 µM; in the assay with CCRF-CEM leukemia, 0.687 µM; in the assay with HOP-92 NSCLC it was 1.56 µM; in the assay with IGROV1 ovarian, 3.12 µM; in the assay on A549 NSCLC, 5.62 µM; with MCF7 breast it was 4.73 µM. Also, the GI50 in the assay on TK-10 renal is 3.62 µM; with OVCAR-5 ovarian, 18.2 µM; in the assay with HT29 colon it was 5.95 µM; in the assay with SK-MEL-28 melanoma, 7.18 µM. For the same molecule, the TGI in the assay on DU-145 prostate is more than 100 µM; with CCRF-CEM leukemia it was 10.5 µM; in the assay with HOP-92 NSCLC it was 9.66 µM; in the assay with IGROV1 ovarian, 22.8 µM; in the assay with A549 NSCLC, 51.4 µM; in the assay with MCF7 breast, more than 100 µM. Further, the TGI in the assay on TK-10 renal came to 59.4 µM; in the assay on OVCAR-5 ovarian it was 47.7 µM; in the assay on HT29 colon it was 44.1 µM; in the assay with SK-MEL-28 melanoma it was 60.8 µM.
